US20110034472A1, “Novel Compounds for Treatment of Cancer and Disorders Associated With Angiogenesis Function” (UNIVERSITY OF SOUTHERN CALIFORNIA, priority 2004, published 2011)

Tested on: T24 bladder cancer cell lines
Experiment: StaRT-PCR gene expression, SC23
Format: cell-based, human
Procedure: FIG. 21 illustrates RT-PCR gene expression analysis. Total RNA form T24 cells was isolated and cDNA was synthesized with 2.5 ug of total RNA. Standardized RT-PCR was performed with GENE system I gene expression kit (Gene Express Inc.). Each kit contains a mixture of the internal competitive templates and the corresponding primers.
Total RNA form T24 cells were isolated after 3h, Oh, 12h, 24h, and 48h exposure to SC23.
StaRT-PCR™ (Standardized Reverse Transcription Polymerase Chain Reaction). First described by Willey et al. ((2004) Methods Mol. Biol. 258:13-41), this technique uses standardized mixtures of competitive templates (CT) as internal standards in generating valid and reproducible numerical gene expression data for multiple genes. After the mRNA was converted to cDNA, the cDNA was mixed with a proprietary Standardized Mixture of Internal Standards™ (SMIS™, GeneExpress, Inc.). In the standard mixture, there is an internal standard CT for each gene to be measured as well as one for a reference gene. (i.e., β-actin, GAPDH). The amplicons produced by StaRT-PCR™ was then separated on capillary electrophoresis. The amount of internal standard CT or NT amplimer was determined by measuring each peak area. All data were then reported as number of molecules of mRNA for gene of interest per 10^6 molecules of reference gene (normalizer gene). Serial dilutions of the SMIS™ allow quantitative measurements over 7 log range of gene expression observed in cells from <10 to 10^7 molecules/10^6 molecules reference gene. Data presented in Table 8 are number of copies that have been normalized against 10^6 molecule of β-actin.

O=C(NNC(O)c1cc2ccccc2cc1O)c1cc2ccccc2cc1O (stereo not drawn) [SC23]
BCL2L1 expression (3 hours): 9449.42 molecules/10^6 β-actin | BCL2 expression (3 hours): 152.37 molecules/10^6 β-actin | CASP1 expression (3 hours): 68.36 molecules/10^6 β-actin | CCNA2 expression (3 hours): 126.84 molecules/10^6 β-actin | CCND3 expression (3 hours): 195.17 molecules/10^6 β-actin | CCNE1 expression (3 hours): 51.36 molecules/10^6 β-actin | CCNG1 expression (3 hours): 2956.79 molecules/10^6 β-actin | CDC2 expression (3 hours): 2365.6 molecules/10^6 β-actin | CDC25C expression (3 hours): 394.83 molecules/10^6 β-actin | CDK7 expression (3 hours): 1068.25 molecules/10^6 β-actin | CDK8 expression (3 hours): 412.64 molecules/10^6 β-actin | CDKN1A expression (3 hours): 11.42 molecules/10^6 β-actin | CDKN1B expression (3 hours): 72.37 molecules/10^6 β-actin | CDKN2A expression (3 hours): 415.63 molecules/10^6 β-actin | CDKN2C expression (3 hours): 458.41 molecules/10^6 β-actin | CYP1A2 expression (3 hours): 59.45 molecules/10^6 β-actin | DAP expression (3 hours): 9037.57 molecules/10^6 β-actin | E2F4 expression (3 hours): 7540.97 molecules/10^6 β-actin | E2F5 expression (3 hours): 268.09 molecules/10^6 β-actin | JUN expression (3 hours): 1846.15 molecules/10^6 β-actin | MAD expression (3 hours): 496.75 molecules/10^6 β-actin | MAP3K14 expression (3 hours): 55.57 molecules/10^6 β-actin | MYC expression (3 hours): 974.69 molecules/10^6 β-actin | NFKB1 expression (3 hours): 2694.24 molecules/10^6 β-actin | PCNA expression (3 hours): 8574.58 molecules/10^6 β-actin | PTGS2 expression (3 hours): 82.69 molecules/10^6 β-actin | RB1 expression (3 hours): 7076.29 molecules/10^6 β-actin | RBL2 expression (3 hours): 1287.91 molecules/10^6 β-actin | TGFBR2 expression (3 hours): 1420.02 molecules/10^6 β-actin | TGIF expression (3 hours): 3112.84 molecules/10^6 β-actin | TNFAIP1 expression (3 hours): 4737.75 molecules/10^6 β-actin | TNFRSF1A expression (3 hours): 15.56 molecules/10^6 β-actin | TNFSF10 expression (3 hours): 82.86 molecules/10^6 β-actin | TP53 expression (3 hours): 567.53 molecules/10^6 β-actin | TRAF4 expression (3 hours): 69.06 molecules/10^6 β-actin | BCL2L1 expression (6 hours): 10428.62 molecules/10^6 β-actin | BCL2 expression (6 hours): 121.2 molecules/10^6 β-actin | CASP1 expression (6 hours): 80.87 molecules/10^6 β-actin | CCNA2 expression (6 hours): 348.88 molecules/10^6 β-actin | CCND3 expression (6 hours): 175.1 molecules/10^6 β-actin | CCNE1 expression (6 hours): 33.08 molecules/10^6 β-actin | CCNG1 expression (6 hours): 6161.69 molecules/10^6 β-actin | CDC2 expression (6 hours): 1650.84 molecules/10^6 β-actin | CDC25C expression (6 hours): 606.06 molecules/10^6 β-actin | CDK7 expression (6 hours): 778.75 molecules/10^6 β-actin | CDK8 expression (6 hours): 354.76 molecules/10^6 β-actin | CDKN1A expression (6 hours): 27.06 molecules/10^6 β-actin | CDKN1B expression (6 hours): 390.76 molecules/10^6 β-actin | CDKN2A expression (6 hours): 5611.87 molecules/10^6 β-actin | CDKN2C expression (6 hours): 781.31 molecules/10^6 β-actin | CYP1A2 expression (6 hours): 10 molecules/10^6 β-actin | DAP expression (6 hours): 12572.87 molecules/10^6 β-actin | E2F4 expression (6 hours): 1285.78 molecules/10^6 β-actin | E2F5 expression (6 hours): 243.27 molecules/10^6 β-actin | JUN expression (6 hours): 4168.04 molecules/10^6 β-actin | MAD expression (6 hours): 763.05 molecules/10^6 β-actin | MAP3K14 expression (6 hours): 68.69 molecules/10^6 β-actin | MYC expression (6 hours): 2650.11 molecules/10^6 β-actin | NFKB1 expression (6 hours): 3274.07 molecules/10^6 β-actin | PCNA expression (6 hours): 6433.1 molecules/10^6 β-actin | PTGS2 expression (6 hours): 157.43 molecules/10^6 β-actin | RB1 expression (6 hours): 5973.3 molecules/10^6 β-actin | RBL2 expression (6 hours): 2112.09 molecules/10^6 β-actin | TGFBR2 expression (6 hours): 2582.67 molecules/10^6 β-actin | TGIF expression (6 hours): 8002.87 molecules/10^6 β-actin | TNFAIP1 expression (6 hours): 7127.73 molecules/10^6 β-actin | TNFRSF1A expression (6 hours): 20.58 molecules/10^6 β-actin | TNFSF10 expression (6 hours): 532.07 molecules/10^6 β-actin | TP53 expression (6 hours): 1005.63 molecules/10^6 β-actin | TRAF4 expression (6 hours): 91.86 molecules/10^6 β-actin | BCL2L1 expression (12 hours): 23160.22 molecules/10^6 β-actin | BCL2 expression (12 hours): 122.24 molecules/10^6 β-actin | CASP1 expression (12 hours): 113.28 molecules/10^6 β-actin | CCNA2 expression (12 hours): 211.27 molecules/10^6 β-actin | CCND3 expression (12 hours): 137.33 molecules/10^6 β-actin | CCNE1 expression (12 hours): 48.10 molecules/10^6 β-actin | CCNG1 expression (12 hours): 9794.14 molecules/10^6 β-actin | CDC2 expression (12 hours): 1566.64 molecules/10^6 β-actin | CDC25C expression (12 hours): 779.22 molecules/10^6 β-actin | CDK7 expression (12 hours): 2551.62 molecules/10^6 β-actin | CDK8 expression (12 hours): 605.61 molecules/10^6 β-actin | CDKN1A expression (12 hours): 129.69 molecules/10^6 β-actin | CDKN1B expression (12 hours): 310.81 molecules/10^6 β-actin | CDKN2A expression (12 hours): 403.27 molecules/10^6 β-actin | CDKN2C expression (12 hours): 770.42 molecules/10^6 β-actin | CYP1A2 expression (12 hours): 69 molecules/10^6 β-actin | DAP expression (12 hours): 38087.74 molecules/10^6 β-actin
